# Test results from patent US8466168B2, “Tricyclic alkylaminomethyloxazolidinone derivatives” (Actellon Pharmaceuticals Ltd., priority 2008, dated 2013).
# Test system: S. aureus A798
# Test: MIC determination by microdilution in cation-adjusted Mueller-Hinton Broth (CLSI M7-A7)
# Assay type: cell-based
# Details: Staphylococcus aureus, microdilution method, strain S. aureus A798
# Protocol: Minimal inhibitory concentrations (MICs; mg/l) were determined in cation-adjusted Mueller-Hinton Broth by a microdilution method following the description given in “Methods for Dilution Antimicrobial Susceptibility Tests for Bacteria that Grow Aerobically”, Approved standard, 7th ed., Clinical and Laboratory Standards Institute (CLSI) Document M7-A7, Wayne, Pa., USA, 2006. All Example compounds were tested against several Gram positive and Gram negative bacteria such as S. aureus, E. faecalis, S. pneumoniae, M catarrhalis, A. baumanii, E. coli or P. aeruginosa.
row,MIC,SMILES
1,≤ 0.031 mg/L,"COc1ccc2ncc3c(c2n1)CC(CNCC[C@@H]1CN(c2ccc4c(c2)NC(=O)CS4)C(=O)O1)O3 (mixture of isomers) [Example 19, 6-((R)-5-{2-[((RS)-8-methoxy-1,2-dihydro-3-oxa-5,9-diaza-cyclopenta[a]naphthalen-2-ylmethyl)-amino]-ethyl}-2-oxo-oxazolidin-3-yl)-4H-benzo[1,4]thiazin-3-one]"
2,≤ 0.031 mg/L,"COc1ccc2ncc3c(c2n1)C(CNCC[C@@H]1CN(c2ccc4c(c2)NC(=O)CS4)C(=O)O1)CO3 (mixture of isomers) [Example 14, 6-((R)-5-{2-[((RS)-8-methoxy-1,2-dihydro-3-oxa-5,9-diaza-cyclopenta[a]naphthalen-1-ylmethyl)-amino]-ethyl}-2-oxo-oxazolidin-3-yl)-4H-benzo[1,4]thiazin-3-one]"
3,≤ 0.031 mg/L,"COc1ccc2ncc3c(c2n1)C(CCNCC[C@@H]1CN(c2ccc4c(c2)NC(=O)CS4)C(=O)O1)CO3 (mixture of isomers) [Example 13, 6-((R)-5-{2-[2-((RS)-8-methoxy-1,2-dihydro-3-oxa-5,9-diaza-cyclopenta[a]naphthalen-1-yl)-ethylamino]-ethyl}-2-oxo-oxazolidin-3-yl)-4H-benzo[1,4]thiazin-3-one]"
4,≤ 0.031 mg/L,"COc1ccc2ncc3c(c2n1)C(CNCC[C@H]1CN(c2ccc4c(c2)NC(=O)CS4)C(=O)O1)CO3 (mixture of isomers) [Example 15, 6-((S)-5-{2-[((RS)-8-methoxy-1,2-dihydro-3-oxa-5,9-diaza-cyclopenta[a]naphthalen-1-ylmethyl)-amino]-ethyl}-2-oxo-oxazolidin-3-yl)-4H-benzo[1,4]thiazin-3-one]"
5,≤ 0.031 mg/L,"COc1ccc2ccc3c(c2n1)C(CCNC[C@@H]1CN(c2ccc4c(c2)NC(=O)CS4)C(=O)O1)CO3 (mixture of isomers) [Example 6, 6-((R)-5-{[2-((RS)-2-methoxy-8,9-dihydro-furo[2,3-h]quinolin-9-yl)-ethylamino]-methyl}-2-oxo-oxazolidin-3-yl)-4H-benzo[1,4]thiazin-3-one]"
6,≤ 0.031 mg/L,"COc1ccc2ncc3c(c2n1)C(CCNC[C@@H]1CN(c2ccc4c(c2)NC(=O)CO4)C(=O)O1)CO3 (mixture of isomers) [Example 10, 6-((R)-5-{[2-((RS)-8-methoxy-1,2-dihydro-3-oxa-5,9-diaza-cyclopenta[a]naphthalen-1-yl)-ethylamino]-methyl}-2-oxo-oxazolidin-3-yl)-4H-benzo[1,4]oxazin-3-one]"
7,≤ 0.031 mg/L,"COc1ccc2ncc3c(c2n1)C(CCNC[C@H]1CN(c2ccc4c(c2)NC(=O)CS4)C(=O)O1)CO3 (mixture of isomers) [Example 12, 6-((S)-5-{[2-((RS)-8-methoxy-1,2-dihydro-3-oxa-5,9-diaza-cyclopenta[a]naphthalen-1-yl)-ethylamino]-methyl}-2-oxo-oxazolidin-3-yl)-4H-benzo[1,4]thiazin-3-one]"
8,≤ 0.031 mg/L,"COc1ccc2ncc3c(c2n1)C(CCNC[C@@H]1CN(c2ccc4c(c2)NC(=O)CS4)C(=O)O1)CO3 (mixture of isomers) [Example 9, 6-((R)-5-{[2-((RS)-8-methoxy-1,2-dihydro-3-oxa-5,9-diaza-cyclopenta[a]naphthalen-1-yl)-ethylamino]-methyl}-2-oxo-oxazolidin-3-yl)-4H-benzo[1,4]thiazin-3-one]"
9,≤ 0.031 mg/L,"COc1ccc2ncc3c(c2n1)CC(CNC[C@@H]1CN(c2ccc4c(c2)NC(=O)CS4)C(=O)O1)CO3 (mixture of isomers) [Example 4, 6-((R)-5-{[((RS)-6-methoxy-3,4-dihydro-2H-1-oxa-5,9-diaza-phenanthren-3-ylmethyl)-amino]-methyl}-2-oxo-oxazolidin-3-yl)-4H-benzo[1,4]thiazin-3-one]"
10,≤ 0.031 mg/L,"COc1ccc2ncc3c(c2n1)CC(CNC[C@@H]1CN(c2ccc4c(c2)NC(=O)CS4)C(=O)O1)O3 (mixture of isomers) [Example 17, 6-((R)-5-{[((RS)-8-methoxy-1,2-dihydro-3-oxa-5,9-diaza-cyclopenta[a]naphthalen-2-ylmethyl)-amino]-methyl}-2-oxo-oxazolidin-3-yl)-4H-benzo[1,4]thiazin-3-one]"

# More lines, now with the values behind:
row,SMILES,MIC
1,"COc1ccc2ccc3c(c2n1)C(CNC[C@@H]1CN(c2ccc4c(c2)NC(=O)CS4)C(=O)O1)CO3 (mixture of isomers) [Example 8, 6-((R)-5-{[((RS)-2-methoxy-8,9-dihydro-furo[2,3-h]quinolin-9-ylmethyl)-amino]-methyl}-2-oxo-oxazolidin-3-yl)-4H-benzo[1,4]thiazin-3-one]",≤ 0.031 mg/L
2,"COc1ccc2ncc3c(c2n1)C(CCNC[C@@H]1CN(c2ccc(C)c(F)c2)C(=O)O1)CO3 (mixture of isomers) [Example 11, (R)-3-(3-fluoro-4-methyl-phenyl)-5-{[2-((RS)-8-methoxy-1,2-dihydro-3-oxa-5,9-diaza-cyclopenta[a]naphthalen-1-yl)-ethylamino]-methyl}-oxazolidin-2-one]",0.25 mg/L
3,"COc1ccc2ncc3c(c2n1)C(CCNC(=O)[C@@H]1CN(c2ccc4c(c2)OCCO4)C(=O)O1)CO3 (mixture of isomers) [Example 16, (S)-3-(2,3-dihydro-benzo[1,4]dioxin-6-yl)-2-oxo-oxazolidine-5-carboxylic acid [2-((RS)-8-methoxy-1,2-dihydro-3-oxa-5,9-diaza-cyclopenta[a]naphthalen-1-yl)-ethyl]-amide]",≤ 0.031 mg/L
4,"COc1ccc2ccc3c(c2n1)CC(CNC[C@@H]1CN(c2ccc4c(c2)NC(=O)CS4)C(=O)O1)CO3 (mixture of isomers) [Example 1, 6-((R)-5-{[((RS)-6-methoxy-3,4-dihydro-2H-1-oxa-5-aza-phenanthren-3-ylmethyl)-amino]-methyl}-2-oxo-oxazolidin-3-yl)-4H-benzo[1,4]thiazin-3-one]",≤ 0.031 mg/L
5,"COc1ccc2ncc3c(c2n1)CC(CNC[C@@H]1CN(c2ccc4c(c2)NC(=O)CS4)C(=O)O1)CN3 (mixture of isomers) [Example 5, 6-((R)-5-{[((RS)-6-methoxy-1,2,3,4-tetrahydro-1,5,9-triaza-phenanthren-3-ylmethyl)-amino]-methyl}-2-oxo-oxazolidin-3-yl)-4H-benzo[1,4]thiazin-3-one]",≤ 0.031 mg/L
6,"COc1ccc2ncc3c(c2n1)CC(CNC[C@@H]1CN(c2ccc4c(c2)NC(=O)CO4)C(=O)O1)CO3 (mixture of isomers) [Example 3, 6-((R)-5-{[((RS)-6-methoxy-3,4-dihydro-2H-1-oxa-5,9-diaza-phenanthren-3-ylmethyl)-amino]-methyl}-2-oxo-oxazolidin-3-yl)-4H-benzo[1,4]oxazin-3-one]",≤ 0.031 mg/L
7,"COc1ccc2ccc3c(c2n1)C(CCNC[C@@H]1CN(c2ccc4c(c2)NC(=O)CO4)C(=O)O1)CO3 (mixture of isomers) [Example 7, 6-((R)-5-{[2-((RS)-2-methoxy-8,9-dihydro-furo[2,3-h]quinolin-9-yl)-ethylamino]-methyl}-2-oxo-oxazolidin-3-yl)-4H-benzo[1,4]oxazin-3-one]",≤ 0.031 mg/L
8,"COc1ccc2ccc3c(c2n1)CC(CNC[C@@H]1CN(c2ccc4c(c2)NC(=O)CO4)C(=O)O1)CO3 (mixture of isomers) [Example 2, 6-((R)-5-{[((RS)-6-methoxy-3,4-dihydro-2H-1-oxa-5-aza-phenanthren-3-ylmethyl)-amino]-methyl}-2-oxo-oxazolidin-3-yl)-4H-benzo[1,4]oxazin-3-one]",≤ 0.031 mg/L
9,"COc1ccc2ncc3c(c2n1)[C@@H](CCNCC1CN(c2ccc4c(c2)OCCO4)C(=O)O1)CO3 (mixture of isomers) [Example 20, (RS)-3-(2,3-dihydro-benzo[1,4]dioxin-6-yl)-5-{[2-((R)-8-methoxy-1,2-dihydro-3-oxa-5,9-diaza-cyclopenta[a]naphthalen-1-yl)-ethylamino]-methyl}-oxazolidin-2-one]",1 mg/L
10,"COc1ccc2ncc3c(c2n1)CC(CNCC[C@@H]1CN(c2ccc4c(c2)NC(=O)CO4)C(=O)O1)O3 (mixture of isomers) [Example 18, 6-((R)-5-{2-[((RS)-8-methoxy-1,2-dihydro-3-oxa-5,9-diaza-cyclopenta[a]naphthalen-2-ylmethyl)-amino]-ethyl}-2-oxo-oxazolidin-3-yl)-4H-benzo[1,4]oxazin-3-one]",≤ 0.031 mg/L
